Values quoted from earlier work in patent US6455580B1, “Method and composition for antiviral therapy” (F&S Group, Inc., priority 1994, dated 2002).

Tests used:
[1] = not given; remark: listed apart in the source
[2] = animal studies; oleuropein itself or as component of plant tissue extracts

For COC(=O)C1=CO[C@@H](C)[C@@H](C=O)C1CC(=O)O (single isomer, unassigned; (-)) [(−)-elenolic acid], the “antiviral activity in vivo” value is listed as “little, if any, activity in vivo” and the “antiviral properties in vitro” value [1] is listed as “antiviral properties in vitro”.
For C/C=C1/[C@H](O[C@@H]2O[C@H](CO)[C@@H](O)[C@H](O)[C@H]2O)OC=C(C(=O)OC)[C@H]1CC(=O)OCCc1ccc(O)c(O)c1 [oleuropein], the “hypoglycemic and cardiovascular effects” value [2] is given as “exhibit both hypoglycemic and cardiovascular effects”.
